From a melting point compilation (Tetko et al.; mined from patent text by program, amines drawn as free bases though some values may be those of a salt)

Work on `Cc1cc(Cl)c(Nc2ccc(C)cc2CC(=O)O)c(Cl)c1` yielded a melting point of 179 to 182 °C.
With `CC(C)(C)OC(=O)COc1cc(NC(=O)OC(C)(C)C)c([N+](=O)[O-])cc1-c1ccc(F)cc1` the melting point was 92 to 93 °C.
`Nc1ncc(-c2noc(-c3cnn4c(C(F)(F)F)cc(-c5ccc(F)c(F)c5)nc34)n2)cn1` showed a melting point of 268 °C.
`Cc1c(-c2ccc(O)cc2)n(Cc2ccc(OCCN3CCCCC3C)cc2)c2ccc(O)cc12` (stereo unspecified) showed a melting point of 121 to 123 °C.
Work on `Cc1cnc2c(c1)CCCC2O` (stereo unspecified) yielded a melting point of 58 °C.
`CC(=O)Oc1nc(-c2ccccc2)sc1-c1ccccc1` showed a melting point of 101 to 103 °C.
Work on `O=C1CCC(CCO)N1` (stereo unspecified) yielded a melting point of 52 to 52.5 °C.
For `CON1C(C)(C)CC(OC(=O)c2ccccc2)CC1(C)C`, the melting point was 67 to 68 °C.
`CCCc1nn(C)c2c(=O)[nH]c(-c3cc(C(=O)N4CCN(C)CC4)ccc3OCC)nc12` showed a melting point of 196 to 197 °C.
For `O=C(Nc1nc2ccccc2o1)C(Cc1ccc(F)cc1)c1ccc(F)cc1F` (stereo unspecified), the melting point was 178 °C.
For `Nc1ccccc1CCN1CCN(c2ccccc2)CC1`, the melting point was 103 °C.
Work on `CS(=O)(=O)Oc1ccc(-c2cc3ccc(OS(C)(=O)=O)cc3s2)cc1` yielded a melting point of 195 to 197 °C.
`COc1ccc(CCC(=O)O)c(Cl)c1Cl` showed a melting point of 141 to 143 °C.
With `c1cncc(-c2cc(C3CC3)on2)c1` the melting point was 70 to 73 °C.
Molecule `O=C(O)c1cccnc1Nc1cccc([N+](=O)[O-])c1` has a melting point of 262 to 264 °C.
`CN1C(=O)Cc2cc(C3=NNC(=O)C4CC34)ccc21` (stereo unspecified) gave a melting point of 265 to 267 °C.
Work on `COc1cc(OC)nc(-c2ccc(-c3ccccc3S(=O)(=O)Nc3onc(C)c3C)cc2)n1` yielded a melting point of 83 to 93 °C.
In the case of `CC(CO)n1nnc2cc3c(=O)n(C(C)Cn4ncnn4)nnc3cc2c1=O` (stereo unspecified), the melting point is reported as 153 to 154 °C.
`CCc1ccc2c(c1)Cc1cc(C(C)=O)ccc1-2` gave a melting point of 120 to 122 °C.
In the case of `CC(C)c1ccc(S(=O)(=O)n2c(Cc3ccc(C(=O)O)s3)cc3cc(C(F)(F)F)ccc32)cc1`, the melting point is reported as 199 to 216 °C.
With `O=C(Nc1ccc2[nH]ccc2c1)c1ccco1` the melting point was 181 to 182 °C.
`CCc1nccn1N=Cc1ccc(N(C)C)cc1` showed a melting point of 120 to 121 °C.
`Cn1c(C(=O)O)cc(=O)c2oc3ccc(Cl)cc3c(=O)c21` gave a melting point of 241 to 242 °C.
`COc1ccc(C(=CC(=O)N2CCOCC2)c2ccc(NC(=O)NS(=O)(=O)c3ccc(C)cc3)cc2)cc1OC` gave a melting point of 220 to 225 °C.
In the case of `CCCCCc1cc2c(nc(O)n2CCCNS(C)(=O)=O)c(N)n1`, the melting point is reported as 174 to 176 °C.
With `CN(C)C(c1cccs1)C1CCC(=NO)CC1` (stereo unspecified) the melting point was 118 to 121 °C.
Work on `CC(NC(=O)OC(C)(C)C)c1cc(F)c(N)c(I)c1` (stereo unspecified) yielded a melting point of 88 to 90 °C.
Work on `N#Cc1ccc(-c2ccc(C#N)c(Cn3cncn3)c2)cc1` yielded a melting point of 222 to 223 °C.
Work on `COCCOCOc1ccc2cc(C(=O)O)ccc2c1` yielded a melting point of 110 °C.
In the case of `CC1(C)CC(=NO)c2cc(-c3ccccc3)ccc2O1`, the melting point is reported as 130 to 134 °C.
Work on `COc1c(C(=O)O)ccc(Cl)c1SC` yielded a melting point of 121 to 123 °C.
`COc1cc(OC)nc(NC(=O)NS(=O)(=O)Cc2ccccc2C(=O)N(C)C)n1` gave a melting point of 141 to 143 °C.
`CC(C)Nc1nc2cc(F)c(F)cc2[nH]1` gave a melting point of 188 to 189 °C.
Work on `COC(=O)C(=CNc1ncnc2ccc(NC(=O)C(C)(C)C)cc12)C(=O)OC` yielded a melting point of 189 to 190 °C.
`O=C(O)c1ccccc1-c1nnc(-c2cccc(C(F)(F)F)c2)o1` gave a melting point of 141 to 159 °C.
Work on `COC(=O)c1ccc(/C=C(\C)c2ccc3c(c2)SCCCN3C)cc1` yielded a melting point of 97 to 98 °C.
Molecule `Cc1c(C(=O)Nc2ccc(N3CCN(CCO)CC3)c(C#N)c2)cnn1-c1ccc(F)c(Cl)c1` has a melting point of 191 °C.
With `Nc1ncccc1-c1nc2ccc(Cl)nc2n1-c1ccc(CNC(=O)c2cccc(F)c2)cc1` the melting point was 240 to 243 °C.
Work on `COc1ccc(OC)c(S(=O)(=O)NC(=O)C(C)Br)c1` (stereo unspecified) yielded a melting point of 116 to 118 °C.
`Cc1cn(-c2cc(NC(=O)c3cccc(Nc4nccc(-c5cccnc5)n4)c3)cc(C(F)(F)F)c2)cn1` showed a melting point of 264 to 266 °C.
`COC(=O)NCC1=C(n2ccccc2=O)c2cc([N+](=O)[O-])ccc2OC1(C)C` gave a melting point of 199 °C.
In the case of `CC1(C)Cc2nc3ccccc3n2C(=O)N1`, the melting point is reported as 205 to 210 °C.
In the case of `CCCc1ccccc1OCCCOc1ccc2c(=O)cc(C(=O)O)oc2c1`, the melting point is reported as 164 to 166 °C.
In the case of `CC[C@H](C)[C@H](NS(=O)(=O)c1cccc2ccccc12)C(=O)N[C@@H](Cc1c[nH]c2ccccc12)C(=O)OC`, the melting point is reported as 172 to 174 °C.
In the case of `CC1(C)N=C(c2ccccc2Cl)c2cc([N+](=O)[O-])cc(Cl)c2NC1=O`, the melting point is reported as 121 °C.
`C=C1CC2C(=O)C(c3c(CC)cc(C)cc3CC)=C(OCc3ccccc3)C2C1` (stereo unspecified) showed a melting point of 87 to 88 °C.
`Cc1ccc(Cn2c(=O)c3c(N4CCN(C)CC4)cc(Cl)cc3n(Cc3ccccc3)c2=O)o1` showed a melting point of 132 to 136 °C.
With `Cc1c(C2CCC(c3ccccc3)(N(C)C)CC2)[nH]c2ccc(O)cc12` (stereo unspecified) the melting point was 164 to 169 °C.
Molecule `Cc1cccc(Nc2cc(Cl)nc(SCC(=O)O)n2)c1C` has a melting point of 146 to 151 °C.
In the case of `COC(=O)N=C(NC(=O)OC)Nn1cccc1C(=O)OC`, the melting point is reported as 160 °C.
In the case of `Cc1ccc(C(=O)c2cccc3c2CCC3C(=O)O)cc1` (stereo unspecified), the melting point is reported as 128 to 131 °C.
In the case of `CCCCCCNc1ncnc(N(C)C)c1N`, the melting point is reported as 123 to 125 °C.
`N#CC(=Cc1ccc2c(c1)OCO2)CN1CCOCC1` gave a melting point of 82 to 84 °C.
`COc1ccc(-c2c(Br)c(CN3C(=O)CCC3=O)nc3sc4c(c23)CCNC4)cc1` gave a melting point of 219 to 221 °C.
In the case of `CCCNC(=O)C1(CCCCCSc2nc3ccc(OCC)cc3s2)c2ccccc2-c2ccccc21`, the melting point is reported as 54 to 56 °C.
Work on `COc1ccc(C=Cc2nnc(C(Br)(Br)Br)o2)cc1` yielded a melting point of 160 to 161 °C.
`CCCCCCCCCCCCCCCCSCC(CN)Oc1ccon1` (stereo unspecified) gave a melting point of 73 to 74 °C.
With `O=C(COc1ccc(Cl)cc1)C1(Cl)CC1` the melting point was 78 °C.
In the case of `CCOC(C#N)NC(=O)c1ccc(COC)cc1` (stereo unspecified), the melting point is reported as 99 to 100 °C.
Work on `Cc1nc(Cc2ccc(NC(=O)/C=C/c3cnn(C)c3-c3ccc(F)cc3)cc2)sc1C` yielded a melting point of 210 to 211 °C.
With `NC(=O)CNC(=O)c1cccc(-c2ccc(F)c3cc(Cc4cc(F)cc(Cl)c4)sc23)c1` the melting point was 166 to 167 °C.
In the case of `O=C(O)C1c2cc(Br)ccc2OCc2ncccc21` (stereo unspecified), the melting point is reported as 126 to 127 °C.
With `Cc1cc(Oc2ncc(C(F)(F)F)cc2Cl)nn1C(=O)NCC(C)C` the melting point was 45 to 47 °C.
With `CCOc1ccc(-c2cncn2-c2ccc(S(=O)(=O)NC(C)(C)C)cc2)cc1` the melting point was 215 °C.
With `CCCCCCCCOc1ccc(-c2nc(-c3ccccc3)c(-c3ccccc3)[nH]2)cc1` the melting point was 178 °C.
In the case of `CCC(=O)NC(=S)NCC1CC2c3cccc4[nH]cc(c34)CC2N(C)C1` (stereo unspecified), the melting point is reported as 225 to 226 °C.
In the case of `O=C(O)C(=O)Nc1cccc(-c2nnn[nH]2)c1`, the melting point is reported as 240 °C.
For `Cc1cc(OC2CCCCO2)c(C)cc1OCCCC(C)(C)C(=O)O` (stereo unspecified), the melting point was 122 to 124 °C.
`O=C(CC1CCCCC1)c1c(O)c2cccnc2n(-c2ccccc2)c1=O` gave a melting point of 231 to 233 °C.
Work on `COc1ccc2c(c1)C(C(=O)N(Cc1ccc(NCc3ccccc3)cc1)c1ccc(C(C)C)cc1)CCC2` (stereo unspecified) yielded a melting point of 135 to 138 °C.
`O=C(c1ccc(F)cc1O)C1CC1` showed a melting point of 58 °C.
`N#Cc1ccc(N2CCCCO2)c2ccccc12` gave a melting point of 111 to 112 °C.
Molecule `CCc1nn(-c2cc(NC(C)=O)ccc2Cl)c(=O)n1Cc1ccc(-c2ccccc2S(=O)(=O)NC(=O)OC(C)(C)C)cc1F` has a melting point of 158 to 160 °C.
In the case of `O=C1CCC(c2ccccc2)(c2ccccc2)C2CN(C(Cc3ccccc3)=NCc3ccc(Cl)cc3)CC12` (stereo unspecified), the melting point is reported as 198 °C.
`O=C(Nc1cc2ncc(CN3CCCC3)cc2cc1Cl)c1ccc(-c2ccc(F)cc2)cc1` gave a melting point of 188 °C.
Molecule `CCn1ncnc1COc1nc2c(cnn2-c2ccccc2)cc1C(C)(C)C` has a melting point of 150 to 152 °C.
Molecule `CN(C)C(=O)COC[C@@H]1CC(c2ccc(-c3ccc(N4C[C@H](Cn5ccnn5)OC4=O)cc3F)cn2)=NO1` has a melting point of 166 to 168 °C.
With `O=C(O)c1ccc2c(Br)cccc2c1` the melting point was 248 to 250 °C.
`COC1(OC)C2(Cl)C(Cl)=C(Cl)C1(Cl)C1OC(=O)OC12` (stereo unspecified) gave a melting point of 160 to 162 °C.
Molecule `Cc1cncc(/C=C/c2cccc(F)c2)n1` has a melting point of 43 to 44 °C.
In the case of `CCN1C(=O)CC(C(=O)O)C1c1c(Cl)cccc1Cl` (stereo unspecified), the melting point is reported as 195 to 197 °C.
Molecule `S=C(Nc1ccccc1)OC1CN2CCC1CC2` (stereo unspecified) has a melting point of 132 to 133 °C.
With `N#CC1CN1C(=O)NC(=O)COc1ccccc1` (stereo unspecified) the melting point was 134 to 136 °C.
Molecule `CC1=C(C)C[C@H]2C(=O)CC(=O)[C@H]2C1` has a melting point of 157 to 158 °C.
In the case of `O=P(O)(O)CCCCCCC(F)(F)C(F)(F)C(F)(F)C(F)(F)F`, the melting point is reported as 107 to 108 °C.
`COC(=O)c1ccc(Cn2c(C)nc3ccccc32)cc1` showed a melting point of 100 to 101 °C.
`O[C@@H]1C=C[C@H](n2cnc3c(NCC(c4ccccc4)c4ccccc4)ncnc32)C1` (racemic) gave a melting point of 165 to 169 °C.
In the case of `CCCC(Cl)(Cl)C(NC(=O)c1ccc(Cl)cc1)NC(=NC#N)Nc1cccnc1` (stereo unspecified), the melting point is reported as 192 to 193 °C.
In the case of `COC(=O)c1ccc(C(=O)NS(=O)(=O)c2ccc(C(=O)NCCc3ccccc3OC)cc2)cn1`, the melting point is reported as 220 to 222 °C.
`CN1CCN(Cc2ccccc2)C(c2ccccc2)C1` (stereo unspecified) gave a melting point of 58 to 60 °C.
In the case of `O=C(c1ccc(S)cc1)c1cccc([N+](=O)[O-])c1`, the melting point is reported as 114 °C.
For `COc1cc2c(cc1OC)NC(=O)CCC2`, the melting point was 153 to 156 °C.
Molecule `Cc1cccc2c1nc(-c1c(F)cccc1F)n2Cc1cccnc1` has a melting point of 131 to 132 °C.
Work on `CC(C)N(C(=O)c1ccc(OCCCCCOc2ccc(C(N)=NO)cc2)cc1)C(C)C` yielded a melting point of 146 to 149 °C.
In the case of `Cc1cccc2c1Sc1nccnc1N2`, the melting point is reported as 165 to 166 °C.
Molecule `O=C(O)c1cc(S(=O)(=O)Oc2ccc(-c3ccc(-c4c(Cc5ccccc5)oc5ccccc45)cc3)cc2)ccc1O` has a melting point of 171 to 173 °C.
`Cc1nc(N)nc(N)c1-c1ccc2ccccc2c1` showed a melting point of 221 to 222 °C.
`COc1ccc(-c2ccc(C#N)cc2)cc1-c1nc2cc(C#N)ccc2[nH]1` gave a melting point of 289 to 290 °C.
Molecule `C=CCSc1nnc(OCC)c2c1CCCC2` has a melting point of 39 to 41 °C.
`O=S(=O)(Nc1ncnc(Cl)c1-c1ccc(OCc2ccccc2)cc1)c1ccc(Cl)cc1` showed a melting point of 234 to 236 °C.
Molecule `NCc1cc2cc(Cl)cc(-c3ccccc3)c2o1` has a melting point of over 225 °C.
